Experimental data reported in PubChem BioAssay AID1259408 (Genetic Toxicology Data Bank (GENE-TOX), 2018).
Calls of active or inactive are those of the source. How the calls were made is not given here.

System: GENE-TOX genotoxicity assays, various organisms and cells
Assay: GENE-TOX mutagenicity studies
Conditions: for call: Assay Type: In vivo carcinogenicity studies
[1] = Species/Cell Type: Chinese hamster ovary (CHO) cells, Assay Type: Forward gene mutation at the HPRT locus, Assay Code: CHO+, Evaluation Type: Evaluation B (Post-1980)
[2] = Species/Cell Type: Saccharomyces cerevisiae, Assay Type: Mitotic recombination or gene conversion, Assay Code: YEC-, Evaluation Type: Evaluation A (Pre-1980)
[3] = Species/Cell Type: Salmonella typhimurium (one or more of the five standard strains: TA98, TA100, TA1535, TA1537, and TA1538), Assay Type: Histidine reverse gene mutation, Ames assay, Assay Code: SAL+*, Activation: With metabolic activation, Evaluation Type: Evaluation A (Pre-1980)
[4] = Species/Cell Type: Drosophila melanogaster, Assay Type: Sex-linked recessive lethal gene mutation, Assay Code: SRL+, Evaluation Type: Evaluation A (Pre-1980)
[5] = Species/Cell Type: Saccharomyces cerevisiae, Assay Type: Mitotic recombination or gene conversion, Assay Code: YEC+, Evaluation Type: Evaluation A (Pre-1980)
[6] = Species/Cell Type: Saccharomyces cerevisiae, Assay Type: Mitotic recombination or gene conversion, Assay Code: YEH+, Evaluation Type: Evaluation A (Pre-1980)
[7] = Species/Cell Type: Mammalian polychromatic erythrocytes, Assay Type: Micronucleus test, chromosome aberrations, Assay Code: MNT+U, Dose Response: Unconfirmed positive response, Evaluation Type: Evaluation B (Post-1980)
[8] = Species/Cell Type: Salmonella typhimurium (one or more of the five standard strains: TA98, TA100, TA1535, TA1537, and TA1538), Assay Type: Histidine reverse gene mutation, Ames assay, Assay Code: SALT, Evaluation Type: Evaluation A (Pre-1980)
[9] = Species/Cell Type: Salmonella typhimurium (one or more of the five standard strains: TA98, TA100, TA1535, TA1537, and TA1538), Assay Type: Histidine reverse gene mutation, Ames assay, Assay Code: SAL+, Evaluation Type: Evaluation A (Pre-1980)

Compound: COc1cc([C@@H]2c3cc4c(cc3[C@@H](O[C@@H]3O[C@@H]5CO[C@@H](c6cccs6)O[C@H]5[C@H](O)[C@H]3O)[C@H]3COC(=O)[C@H]23)OCO4)cc(OC)c1O
- mutagenic call [1]: active; positive
- mutagenic call (Species/Cell Type: Nonhuman, Assay Type: Sister-chromatid exchange (SCE) in vitro, Assay Code: SC2+, Evaluation Type: Evaluation B (Post-1980)): active; positive

Compound: C=CC1CO1 (stereo not given)
- mutagenic call (Species/Cell Type: Nonhuman, Assay Type: Sister-chromatid exchange (SCE) in vivo, Assay Code: SC3+D, Dose Response: With dose response, Evaluation Type: Evaluation B (Post-1980)): active; positive

Compound: CN(C)c1ccc(C(=C2C=CC(=[N+](C)C)C=C2)c2c(O)c(S(=O)(=O)[O-])cc3cc(S(=O)(=O)O)ccc23)cc1
- mutagenic call [2]: inactive; negative

Compound: c1ccc2c(c1)ccc1cc3ccc4ccccc4c3cc12
- mutagenic call [3]: active; positive

Compound: N[C@@H](CC(=O)O)C(=O)O
- mutagenic call (Species/Cell Type: Allium cepa, Assay Type: Chromosome aberrations, Assay Code: ALC+D, Dose Response: With dose response, Evaluation Type: Evaluation A (Pre-1980)): active; positive
- mutagenic call (Species/Cell Type: Human, Sex: Male, Assay Type: Sperm morphology, Assay Code: SPH+, Evaluation Type: Evaluation A (Pre-1980)): active; positive

Compound: C[S-].C[S-].N#[O+].N#[O+].N#[O+].N#[O+].[Fe].[Fe]
- mutagenic call (Species/Cell Type: Nonhuman, Assay Type: Sister-chromatid exchange (SCE) in vitro, Assay Code: SC2T, Evaluation Type: Evaluation B (Post-1980)): no conclusion

Compound: Cc1ccc(N)cc1Cl
- call (Species/Cell Type: Nonhuman, Assay Code: CCG-, Evaluation Type: Evaluation A (Pre-1980)): inactive; negative

Compound: CN(C)N=Nc1c(F)cc(F)cc1F
- mutagenic call [4]: active; positive

Compound: CCCO
- mutagenic call (Species/Cell Type: Nonhuman, Assay Type: Sister-chromatid exchange (SCE) in vitro, Assay Code: SC2-, Evaluation Type: Evaluation A (Pre-1980)): inactive; negative

Compound: Nc1ccc(/C=C/c2ccc([N+](=O)[O-])o2)nn1
- mutagenic call (Species/Cell Type: Glycine max (soybean), Assay Type: Gene mutation, Assay Code: GLM+, Evaluation Type: Evaluation A (Pre-1980)): active; positive
- mutagenic call (Species/Cell Type: Human lymphocytes, Assay Type: Sister-chromatid exchange (SCE) in vitro, Assay Code: SCL+, Evaluation Type: Evaluation B (Post-1980)): active; positive
- mutagenic call (Species/Cell Type: Human lymphocytes, Assay Type: Sister-chromatid exchange (SCE) in vitro, Assay Code: SCL+D, Dose Response: With dose response, Evaluation Type: Evaluation A (Pre-1980)): active; positive
- mutagenic call (Species/Cell Type: Human, Assay Type: Sister-chromatid exchange (SCE) in vitro, Assay Code: SC1+, Evaluation Type: Evaluation B (Post-1980)): active; positive
- mutagenic call (Species/Cell Type: Human, Assay Type: Sister-chromatid exchange (SCE) in vitro, Assay Code: SC1+D, Dose Response: With dose response, Evaluation Type: Evaluation A (Pre-1980)): active; positive
- mutagenic call (Species/Cell Type: Saccharomyces cerevisiae, Assay Type: Forward and reverse gene mutation, mitotic recombination and gene conversion, DNA effects, body fluid assay, Assay Code: BFC+, Evaluation Type: Evaluation A (Pre-1980)): active; positive
- mutagenic call (Species/Cell Type: Saccharomyces cerevisiae, Assay Type: Forward and reverse gene mutation, mitotic recombination and gene conversion, host-mediated assay, Assay Code: HME-, Evaluation Type: Evaluation A (Pre-1980)): inactive; negative
- mutagenic call [5]: active; positive
- mutagenic call [6]: active; positive

Compound: NC(=S=O)c1ccccc1
- mutagenic call [7]: active; positive

Compound: O=S(O)OS(=O)O
- mutagenic call (Species/Cell Type: Escherichia coli WP2 UVRA, Assay Type: Tryptophan reverse gene mutation, Assay Code: WPU-*, Activation: With metabolic activation, Evaluation Type: Evaluation A (Pre-1980)): inactive; negative

Compound: O=S1(=O)OC2(c3ccc(O)cc3Oc3cc(O)ccc32)c2ccccc21
- mutagenic call [8]: no conclusion

Compound: COc1ccc2nc3cc(Cl)ccc3c(NCCCNCCO)c2n1
- mutagenic call (Species/Cell Type: Chinese hamster ovary (CHO) cells, Assay Type: Forward gene mutation at the HPRT locus, Assay Code: CHOT, Evaluation Type: Evaluation B (Post-1980)): no conclusion

Compound: CCN(CC)CCn1c2ccc(CO)c3c2c([n+]1[O-])-c1ccc(Cl)cc1S3
- mutagenic call [9]: active; positive
- mutagenic call [8]: no conclusion
- mutagenic call (Species/Cell Type: Salmonella typhimurium, Assay Type: Forward and reverse gene mutation, body fluid assay, Assay Code: BFU+, Evaluation Type: Evaluation A (Pre-1980)): active; positive
- mutagenic call (Species/Cell Type: Salmonella typhimurium, Assay Type: Forward and reverse gene mutation, host-mediated assay, Assay Code: HMA+, Evaluation Type: Evaluation A (Pre-1980)): active; positive

Compound: CCN(CC)CCNc1ccc(C(=O)O)c2sc3ccccc3c(=O)c12
- mutagenic call (Species/Cell Type: Fischer rat embryo (RLV/1706) cells, Assay Type: Cell transformation, viral enhanced, Assay Code: CTR+, Evaluation Type: Evaluation A (Pre-1980)): active; positive

Compound: CCOC(=O)N(C)N=O
- mutagenic call (Species/Cell Type: Arabidopsis species, Assay Type: Gene mutation, Assay Code: ARM+D, Dose Response: With dose response, Evaluation Type: Evaluation A (Pre-1980)): active; positive
- mutagenic call (Species/Cell Type: Bacillus subtilis (H17 vs M45T), Assay Type: Rec-assay, spot test, DNA effects (bacterial DNA repair), Assay Code: REX+, Evaluation Type: Evaluation A (Pre-1980)): active; positive
- mutagenic call [4]: active; positive
- mutagenic call (Species/Cell Type: Drosophila melanogaster, Sex: Male, Assay Type: Heritable translocation test, chromosome aberrations, Assay Code: DHTT, Evaluation Type: Evaluation A (Pre-1980)): no conclusion
- mutagenic call (Species/Cell Type: Escherichia coli polA (W3119 vs P3478), Assay Type: Rec-assay, DNA effects (bacterial DNA repair), Assay Code: RE1+, Evaluation Type: Evaluation A (Pre-1980)): active; positive
- mutagenic call (Species/Cell Type: Hordeum vulgare (barley), Assay Type: Chromosome aberrations, Assay Code: HOC+D, Dose Response: With dose response, Evaluation Type: Evaluation A (Pre-1980)): active; positive
- mutagenic call (Species/Cell Type: Hordeum vulgare (barley), Assay Type: Gene mutation, Assay Code: HOM+, Evaluation Type: Evaluation A (Pre-1980)): active; positive
- call (Species/Cell Type: Nonhuman, Assay Code: CCG+, Evaluation Type: Evaluation A (Pre-1980)): active; positive
- mutagenic call (Species/Cell Type: Saccharomyces cerevisiae, Assay Type: Forward gene mutation, Assay Code: YEF+, Evaluation Type: Evaluation A (Pre-1980)): active; positive
- mutagenic call [5]: active; positive
- mutagenic call [6]: active; positive
- mutagenic call [9]: active; positive
- mutagenic call (Species/Cell Type: Schizosaccharomyces pombe, Assay Type: Reverse gene mutation, Assay Code: YEZ+, Evaluation Type: Evaluation A (Pre-1980)): active; positive

Compound: CSCCC(N)C(=O)O (stereo not given)
- mutagenic call (Species/Cell Type: Escherichia coli polA (W3119 vs P3478), Assay Type: Rec-assay, DNA effects (bacterial DNA repair), Assay Code: RE1T, Evaluation Type: Evaluation A (Pre-1980)): no conclusion

Compound: Nc1ccc2ccc3cccc4ccc1c2c34
- mutagenic call [3]: active; positive

Compound: Cc1ccc2ccc3c4ccccc4ccc3c2c1
- mutagenic call [3]: active; positive

Compound: CO[C@@H]1[C@H](C)O[C@@H](O[C@@H]2C[C@H](Oc3cc(O)c4c(O)c5c(cc4c3)C[C@@H]([C@H](OC)C(=O)[C@@H](O)[C@@H](C)O)[C@H](O[C@@H]3C[C@H](OC4C[C@H](O)[C@@H](O)[C@H](C)O4)[C@@H](O)[C@H](C)O3)C5=O)O[C@H](C)[C@@H]2O)C[C@@H]1O (stereo not given in full)
- mutagenic call [1]: active; positive

Compound: O=S(=O)(O)c1ccc2c(N=Nc3ccc(S(=O)(=O)O)c4ccccc34)c(O)c(S(=O)(=O)O)cc2c1
- mutagenic call (Species/Cell Type: Bacillus subtilis (H17 vs M45), Assay Type: Rec-assay, spot test, DNA effects (bacterial DNA repair), Assay Code: REWT, Evaluation Type: Evaluation A (Pre-1980)): no conclusion
- mutagenic call (Species/Cell Type: Bacillus subtilis (H17 vs M45T), Assay Type: Rec-assay, spot test, DNA effects (bacterial DNA repair), Assay Code: REXT, Evaluation Type: Evaluation A (Pre-1980)): no conclusion
- mutagenic call (Species/Cell Type: Rodents, Sex: Male, Assay Type: Dominant lethal test, Assay Code: DLT-, Evaluation Type: Evaluation A (Pre-1980)): inactive; negative
- mutagenic call [2]: inactive; negative
- mutagenic call (Species/Cell Type: Salmonella typhimurium (one or more of the five standard strains: TA98, TA100, TA1535, TA1537, and TA1538), Assay Type: Histidine reverse gene mutation, Ames assay, Assay Code: SAL-, Evaluation Type: Evaluation A (Pre-1980)): inactive; negative
- mutagenic call (Species/Cell Type: Syrian hamster embryo (SA7/SHE) cells, Assay Type: Cell transformation, viral enhanced, Assay Code: CT7-, Evaluation Type: Evaluation A (Pre-1980)): inactive; negative

Compound: O=c1c(O)c(-c2ccccc2)oc2cc(O)cc(O)c12
- mutagenic call [7]: active; positive
- mutagenic call (Species/Cell Type: Nonhuman, Assay Type: Sister-chromatid exchange (SCE) in vitro, Assay Code: SC2+*, Activation: With metabolic activation, Evaluation Type: Evaluation B (Post-1980)): active; positive

Compound: O=C(O)C1CCCCN1 (stereo not given)
- mutagenic call (Species/Cell Type: Salmonella typhimurium, Assay Type: Forward and reverse gene mutation, host-mediated assay, Assay Code: HMA-, Evaluation Type: Evaluation A (Pre-1980)): inactive; negative
